These results are taken from patent US20140107100A1, “Benzoxazepines as Inhibitors of PI3K/mTOR and Methods of Their Use and Manufacture” (EXELIXIS, INC., priority 2010, published 2014).

A word on the IC50: it is the concentration at which inhibition is half-maximal.

For the assay, the target named is mTOR/GbL/Raptor (mTORC1) (Homo sapiens, UniProt P42345). Kind of assay: mTOR/GbL/Raptor (mTORC1) ELISA assay, phosphorylation of 4E-BP1. It is filed as biochemical. The settings on record: 0.2 nM mTORC1, 40 uM ATP, 50 nM NHis-tagged 4E-BP1, 120 minutes; read-out: IC50 in this assay (mTORC1 ELISA). Summed up: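 Phospho-4E-BP1 was quantified by luminescent ELISA (anti-phospho-4E-BP1 IgG, HRP-tagged secondary) after capture of the His-tagged substrate on Ni-chelate plates.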
In general terms: ELISA stands for enzyme-linked immunosorbent assay.
For `Cc1cc(-c2cnc3nc[nH]c3c2)cc2c1OCCN(c1nc(N)nc(C)c1C(C)C)C2` [Compound 163, 4-[7-(1H-imidazo[4,5-b]pyridin-6-yl)-9-methyl-2,3-dihydro-1,4-benzoxazepin-4(5H)-yl]-6-methyl-5-(1-methylethyl)pyrimidin-2-amine], the IC50 is not above 100 nM. For the compound `Cc1nc2c(c(N3CCOc4c(C)cc(-c5cnc6sc(N)nc6c5)cc4C3)n1)CC(C)(C)CC2` [Compound 20, 6-[9-methyl-4-(2,6,6-trimethyl-5,6,7,8-tetrahydroquinazolin-4-yl)-2,3,4,5-tetrahydro-1,4-benzoxazepin-7-yl][1,3]thiazolo[5,4-b]pyridin-2-amine], the IC50 was not above 100 nM. Take `Cc1ncc(C)c(N2CCOc3c(C)cc(-c4nnc(N)s4)cc3C2)n1` [Compound 174, 5-[4-(2,5-dimethylpyrimidin-4-yl)-9-methyl-2,3,4,5-tetrahydro-1,4-benzoxazepin-7-yl]-1,3,4-thiadiazol-2-amine]: the IC50 was not above 100 nM. In the case of `CSc1nc(Cl)c(C(C)(C)O)c(N2CCOc3c(C)cc(-c4cnc5sc(N)nc5c4)cc3C2)n1` [Compound 114, 2-{4-[7-(2-amino[1,3]thiazolo[5,4-b]pyridin-6-yl)-9-methyl-2,3-dihydro-1,4-benzoxazepin-4(5H)-yl]-6-chloro-2-(methylthio)pyrimidin-5-yl}propan-2-ol] it was 100 to 500 nM; in that of `Cc1cc(-c2cnc3sc(N)nc3c2)cc2c1OCCN(c1nc(CN3CCC(F)(F)C3)nc(C)c1C(C)C)C2` [Compound 91, 6-(4-{2-[(3,3-difluoropyrrolidin-1-yl)methyl]-6-methyl-5-(1-methylethyl)pyrimidin-4-yl}-9-methyl-2,3,4,5-tetrahydro-1,4-benzoxazepin-7-yl)[1,3]thiazolo[5,4-b]pyridin-2-amine], not above 100 nM. Take `Cc1cc(-c2cnc3nc[nH]c3c2)cc2c1OCCN(c1nc(CNCC(F)F)nc(C)c1C(C)C)C2` [Compound 165, 2,2-difluoro-N-({4-[7-(1H-imidazo[4,5-b]pyridin-6-yl)-9-methyl-2,3-dihydro-1,4-benzoxazepin-4(5H)-yl]-6-methyl-5-(1-methylethyl)pyrimidin-2-yl}methyl)ethanamine]: the 50% inhibitory concentration (IC50) was not above 100 nM. As for `Cc1cc(-c2cnc3sc(N)nc3c2)cc2c1OCCN(c1nc(N)nc3c1CC(C)(C)CC3)C2` [Compound 10, 4-[7-(2-amino[1,3]thiazolo[5,4-b]pyridin-6-yl)-9-methyl-2,3-dihydro-1,4-benzoxazepin-4(5H)-yl]-6,6-dimethyl-5,6,7,8-tetrahydroquinazolin-2-amine], the figure is not above 100 nM; as for `C=Cc1c(C)nc(N)nc1N1CCOc2c(C)cc(-c3cnc4sc(N)nc4c3)cc2C1` [Compound 9, 6-[4-(2-amino-5-ethenyl-6-methylpyrimidin-4-yl)-9-methyl-2,3,4,5-tetrahydro-1,4-benzoxazepin-7-yl][1,3]thiazolo[5,4-b]pyridin-2-amine], not above 100 nM. As to `Cc1nc2ccc(-c3cc(C)c4c(c3)CN(c3nc(CN(C)C)nc(C)c3C(C)C)CCO4)cc2[nH]1` [Compound 45, N,N-dimethyl-1-{4-methyl-5-(1-methylethyl)-6-[9-methyl-7-(2-methyl-1H-benzimidazol-6-yl)-2,3-dihydro-1,4-benzoxazepin-4(5H)-yl]pyrimidin-2-yl}methanamine], the IC50 is 100 to 500 nM.

Regarding `COCCc1c(C)nc(CN2CCCC2)nc1N1CCOc2c(C)cc(-c3cnc4sc(N)nc4c3)cc2C1` [Compound 127, 6-(9-methyl-4-{6-methyl-5-[2-(methyloxy)ethyl]-2-(pyrrolidin-1-ylmethyl)pyrimidin-4-yl}-2,3,4,5-tetrahydro-1,4-benzoxazepin-7-yl)[1,3]thiazolo[5,4-b]pyridin-2-amine], the IC50 was not above 100 nM. In the case of `Cc1cc(-c2nnc(N)s2)cc2c1OCCN(c1nc(CN(C)CC(F)F)nc(C)c1C(C)C)C2` [Compound 168, 5-{4-[2-{[(2,2-difluoroethyl)(methyl)amino]methyl}-6-methyl-5-(1-methylethyl)pyrimidin-4-yl]-9-methyl-2,3,4,5-tetrahydro-1,4-benzoxazepin-7-yl}-1,3,4-thiadiazol-2-amine] it was not above 100 nM; in that of `Cc1cc(-c2cnc3sc(N)nc3c2)cc2c1OCCN(c1ncnc3c1CC(C)(C)C=C3)C2` [Compound 23, 6-[4-(6,6-dimethyl-5,6-dihydroquinoazolin-4-yl)-9-methyl-2,3,4,5-tetrahydro-1,4-benzoxazepin-7-yl][1,3]thiazolo[5,4-b]pyridin-2-amine], not above 100 nM; in that of `CCc1c(Cl)nc(N)nc1N1CCOc2c(C)cc(-c3cnc4sc(N)nc4c3)cc2C1` [Compound 54, 6-[4-(2-amino-6-chloro-5-ethylpyrimidin-4-yl)-9-methyl-2,3,4,5-tetrahydro-1,4-benzoxazepin-7-yl}[1,3]thiazolo[5,4-b]pyridin-2-amine], not above 100 nM. In the case of `Cc1cc(-c2cnc3sc(N)nc3c2)cc2c1OCCN(c1ccc(C#N)cn1)C2` [Compound 36, 6-[7-(2-amino[1,3]thiazolo[5,4-b]pyridin-6-yl)-9-methyl-2,3-dihydro-1,4-benzoxazepin-4(5H)-yl]pyridine-3-carbonitrile] it was 100 to 500 nM; in that of `C#CCc1c(C)nc(C)nc1N1CCOc2c(C)cc(-c3cnc4sc(N)nc4c3)cc2C1` [Compound 138, 6-[4-(2,6-dimethyl-5-prop-2-yn-1-ylpyrimidin-4-yl)-9-methyl-2,3,4,5-tetrahydro-1,4-benzoxazepin-7-yl][1,3]thiazolo[5,4-b]pyridin-2-amine], not above 100 nM; in that of `CC(=O)Nc1ncc(-c2cc(C)c3c(c2)CN(c2nc(N)nc(C)c2C(C)C)CCO3)s1` [Compound 106, N-(5-{4-[2-amino-6-methyl-5-(1-methylethyl)pyrimidin-4-yl]-9-methyl-2,3,4,5-tetrahydro-1,4-benzoxazepin-7-yl}-1,3-thiazol-2-yl)acetamide], not above 100 nM. Regarding `Cc1cc(-c2cnc3sc(N)nc3c2)cc2c1OCCN(c1ncnc(Cl)c1C(C)C)C2` [Compound 108, 6-{4-[6-chloro-5-(1-methylethyl)pyrimidin-4-yl]-9-methyl-2,3,4,5-tetrahydro-1,4-benzoxazepin-7-yl}[1,3]thiazolo[5,4-b]pyridin-2-amine], the half-inhibitory concentration (IC50) was not above 100 nM.

Turning to `Cc1cc(-c2cnc3sc(N)nc3c2)cc2c1OCCN(c1nc([C@@H]3CC(F)(F)CN3)nc(C)c1C(C)C)C2` [Compound 147, 6-(4-{2-[(2S)-4,4-difluoropyrrolidin-2-yl]-6-methyl-5-(1-methylethyl)pyrimidin-4-yl}-9-methyl-2,3,4,5-tetrahydro-1,4-benzoxazepin-7-yl)[1,3]thiazolo[5,4-b]pyridin-2-amine], the IC50 is not above 100 nM.

For the compound `Cc1cc(-c2cnn(C)c2)cc2c1OCCN(c1nc(N)nc(C)c1C(C)C)C2` [Compound 117, 4-methyl-5-(1-methylethyl)-6-[9-methyl-7-(1-methyl-1H-pyrazol-4-yl)-2,3-dihydro-1,4-benzoxazepin-4(5H)-yl]pyrimidin-2-amine], the half-maximal inhibitory concentration (IC50) is 100 to 500 nM. In the case of `COC(C)c1c(C)nc(C)nc1N1CCOc2c(C)cc(-c3cnc4sc(N)nc4c3)cc2C1` (stereo not drawn) [Compound 142, 6-(4-{2,6-dimethyl-5-[1-(methyloxy)ethyl]pyrimidin-4-yl}-9-methyl-2,3,4,5-tetrahydro-1,4-benzoxazepin-7-yl)[1,3]thiazolo[5,4-b]pyridin-2-amine] it was not above 100 nM; in that of `Cc1cc(-c2cnc3sc(N)nc3c2)cc2c1OCCN(c1nc(CN(C)C)ncc1C(C)C)C2` [Compound 58, 6-(4-{2-[(dimethylamino)methyl]-5-(1-methylethyl)pyrimidin-4-yl}-9-methyl-2,3,4,5-tetrahydro-1,4-benzoxazepin-7-yl)[1,3]thiazolo[5,4-b]pyridin-2-amine], not above 100 nM; in that of `Cc1cc(-c2cnc3sc(N)nc3c2)cc2c1OCCN(c1nc(CNCCF)nc(C)c1C(C)C)C2` [Compound 126, 6-{4-[2-{[(2-fluoroethyl)amino]methyl}-6-methyl-5-(1-methylethyl)pyrimidin-4-yl]-9-methyl-2,3,4,5-tetrahydro-1,4-benzoxazepin-7-yl}[1,3]thiazolo[5,4-b]pyridin-2-amine], not above 100 nM. In the case of `CCN(CC)Cc1nc(C)c(C(C)C)c(N2CCOc3c(C)cc(-c4cnc5sc(N)nc5c4)cc3C2)n1` [Compound 65, 6-(4-{2-[(diethylamino)methyl]-6-methyl-5-(1-methylethyl)pyrimidin-4-yl}-9-methyl-2,3,4,5-tetrahydro-1,4-benzoxazepin-7-yl)[1,3]thiazolo[5,4-b]pyridin-2-amine] it was not above 100 nM. With `COCc1c(C)nc(C)nc1N1CCOc2c(C)cc(-c3cnc4sc(N)nc4c3)cc2C1` [Compound 143, 6-(4-{2,6-dimethyl-5-[(methyloxy)methyl]pyrimidin-4-yl}-9-methyl-2,3,4,5-tetrahydro-1,4-benzoxazepin-7-yl)[1,3]thiazolo[5,4-b]pyridin-2-amine], the IC50 was not above 100 nM. With `Cc1cc(-c2cncc(NS(C)(=O)=O)c2)cc2c1OCCN(c1nc(N)nc(C)c1C(C)C)C2` [Compound 18, N-(5-{4-[2-amino-6-methyl-5-(1-methylethyl)pyrimidin-4-yl]-9-methyl-2,3,4,5-tetrahydro-1,4-benzoxazepin-7-yl}pyridin-3-yl)methanesulfonamide], the IC50 was in the range of 100 to 500 nM. In the case of `CCNC(=O)c1nc(C)c(C(C)C)c(N2CCOc3c(C)cc(-c4cnc5sc(N)nc5c4)cc3C2)n1` [Compound 113, 4-[7-(2-amino[1,3]thiazolo[5,4-b]pyridin-6-yl)-9-methyl-2,3-dihydro-1,4-benzoxazepin-4(5H)-yl]-N-ethyl-6-methyl-5-(1-methylethyl)pyrimidine-2-carboxamide] it was not above 100 nM; in that of `CCc1c(Cl)nc(CN(C)C)nc1N1CCOc2c(C)cc(-c3cnc4sc(N)nc4c3)cc2C1` [Compound 61, 6-(4-{6-chloro-2-[(dimethylamino)methyl]-5-ethylpyrimidin-4-yl}-9-methyl-2,3,4,5-tetrahydro-1,4-benzoxazepin-7-yl)[1,3]thiazolo[5,4-b]pyridin-2-amine], not above 100 nM.
